Source: US20250302728A1, “FRAGRANCE COMPOSITIONS AND PRODUCTS CONVEYING A POSITIVE MOOD” (SYMRISE AG, priority 2022, published 2025)

Experiments:
Type in all cases: in vivo, human
[1] = tested on: subject's mood; test: Sensorial and emotional evaluation of fragrance raw materials and fragrance compositions (prosody, verbatim, GEW, IRT, EmoChar combined to one mood); details: 30 subjects, card strip for 10 seconds; details in FIG. 1-9
Experimental: (§1) 1. Sensorial and Emotional Evaluation of Fragrance Raw Materials Each fragrance was evaluated by 30 subjects. At each appointment, the subject discovered fragrances in one sequence of four fragrances and two sequences of three fragrances separated by a 10-minute break.
(§2) During those appointments, the subjects smelt the fragrances in a random way.
(§3) For each fragrance, the subject discovered each fragrance on a card strip for 10 seconds. Between each product, a rest-period of 2 minutes was carried out during which the subject smelt their own body odour by smelling their wrist and the subject drank a little bit of water as well.
(§4) The evaluation is carried out in standardized lighting conditions and under a monitored temperature (temperature 21±1.5° C.).
The different recordings are carried in technical room during talking with the technicians. he following tests were performed for more than 100 different fragrance raw materials.
The following testing procedures were used to determine one mood out of five different testing strategies. All results of the single testing protocols as described in 1.1 to 1.5 were combined and one mood per fragrance raw material or fragrance composition was determined based on the single testing results.
Fragrance compositions were designed by combining the tested fragrance raw materials and the compositions were tested in 30 different subjects to evaluate the emotional impression conveyed by the fragrance composition as described above for the fragrance raw materials.

[2] = tested on: subject's mood; test: Actimood scoring (correlation of EmoChar and IRT values); details: scale 0 (low impact) to 3 (high impact)
Experimental: as §1, §3
Emochar™ is a system of emotional characterization, scoring 7 main emotional dimensions from 0 to 10: • Stimulation: focus, attention, and awakening. • Relaxation: serenity, relaxation and appeasing. • Sensual: arousing, sexy and erotic. • Pleasure: liking, “gourmand” and satisfaction. • Tenderness: gentleness and softness. • Joy: excitement, fun and enthusiasm. • Self-esteem: confidence and assurance
Actimood scores are based on a correlation of EmoChar™ and IRT values. The scores are classified on a scale from 0 (low impact on subject's mood) to 3 (high impact on subject's mood).
Each score is obtained according to an algorithm, mixing verbal and non-verbal responses of volunteers to a specific product, or stimulus in a given context. The algorithm was developed from extensive field data, and in accordance with scientific literature and validated biobehavioral patterns associated to various emotional states.

[3] = tested on: subject's mood; test: Implicit response test (IRT); set-up: scale not given here
Experimental: as §1, §2, §3, §4
Implicit response tests (IRTs) are a family of tests and assess the subjects' immediate, “gut instinct” responses the fragrance raw materials.
The alleged underlying processes are based on how neurosciences describe the way our brain processes information. Indeed, our brain processes information through two systems: System 2, which is slow and processes conscious information, and System 1, which is fast and processes non-conscious information.
The IRT tests are performed at a computer, where the following words appear on the computer screen: • Energizing • Relaxing • Attractive • Sensual • Joyful • Protective • Confident • Fresh • Well-being
The subject has to click on the screen with the computer mouse to indicate their accordance or not of the word with the tested fragrance. In addition, the times to click the button are recorded.

[4] = ingredients of the fragrance composition conveying an attractive mood (Table 2)

C=CCOC(=O)CCC1CCCCC1 [ALLYL CYCLOHEXYL PROPIONATE, allyl 3-cyclohexylpropanoate]
mood conveyed by the fragrance raw material [1]: conveying a joyful mood
Actimood score ([2]; joyful mood (Table 6)): 3

CC1(C)CCCC2(C)C1CCC1(C)OCCC12 (centres unmarked) [AMBROXIDE, 3a,6,6,9a-Tetramethyldodecahydronaphtho[2,1-b]furan]
mood conveyed by the fragrance raw material [1]: conveying a self-confident mood
IRT Score ([3]; ingredients of the fragrance composition conveying a fresh mood (Table 1)): 1643
IRT Score [3, 4]: 1921
Actimood score ([2]; attractive mood (Table 11)): 3
Actimood score ([2]; fresh mood (Table 12)): 3
Actimood score ([2]; joyful mood (Table 6)): 3
Actimood score ([2]; sensual mood (Table 8)): 2
Actimood score ([2]; well-being mood (Table 10)): 3

CC1C(C)(C)C2=C(C(=O)CCC2)C1(C)C (centres unmarked) [CASHMERAN, 1,1,2,3,3,-pentamethyl-2,5,6,7-tetrahydroinden-4-one]
mood conveyed by the fragrance raw material [1]: conveying a protective mood
IRT Score [3, 4]: 1469
Actimood score ([2]; attractive mood (Table 11)): 3
Actimood score ([2]; protective mood (Table 5)): 2
Actimood score ([2]; self-confident mood (Table 9)): 2
Actimood score ([2]; well-being mood (Table 10)): 1

COC1(C)CCC23CC1C(C)(C)C2CCC3C (centres unmarked) [CEDRAMBER, 8-methoxy-2,6,6,8-tetramethyl-tricyclo[5.3.1.01,5]undecane]
mood conveyed by the fragrance raw material [1]: conveying a sensual mood
Actimood score ([2]; sensual mood (Table 8)): 3
Actimood score ([2]; well-being mood (Table 10)): 0

CCc1occc(=O)c1O [ETHYL MALTOL, 2-ethyl-3-hydroxy-pyran-4-one]
mood conveyed by the fragrance raw material [1]: conveying an attractive mood
IRT Score [3, 4]: 3505
Actimood score ([2]; attractive mood (Table 11)): 3
Actimood score ([2]; joyful mood (Table 6)): 3

CCOc1cc(C=O)ccc1O [ETHYL VANILLIN, 3-ethoxy-4-hydroxy-benzaldehyde]
mood conveyed by the fragrance raw material [1]: conveying a well-being mood
IRT Score [3, 4]: 2786
Actimood score ([2]; attractive mood (Table 11)): 3
Actimood score ([2]; protective mood (Table 5)): 1

Oxacyclohexadecen-2-one [GLOBALIDE ®]
mood conveyed by the fragrance raw material [1]: conveying a relaxing mood
IRT Score [3, 4]: 1815
Actimood score ([2]; attractive mood (Table 11)): 3
Actimood score ([2]; protective mood (Table 5)): 2
Actimood score ([2]; well-being mood (Table 10)): 2
